The NIST ThermoML archive (doi:10.1021/acs.jced.9b00540)
Numbers after ± are expanded uncertainties.

Legend:
[1] = Liquid, Falling or rolling sphere viscometry
[2] = xn = mol fraction of the nth substance listed; details: Liquid, x2 = 0

CCOC(F)(C(F)(F)C(F)(F)C(F)(F)F)C(F)(C(F)(F)F)C(F)(F)F (stereo not given) [2-trifluoromethyl-3-ethoxydodecafluorohexane]
viscosity [mPa·s], [1]
Details | 100 kPa | 20000 kPa | 40000 kPa | 60000 kPa | 80000 kPa | 100000 kPa
293.15 K | 1.369 ± 0.031 | 1.894 ± 0.043 | 2.645 ± 0.059 | 3.622 ± 0.081 | 4.894 ± 0.11 | 6.553 ± 0.14
313.15 K | 0.983 ± 0.022 | 1.356 ± 0.03 | 1.869 ± 0.042 | 2.51 ± 0.056 | 3.31 ± 0.073 | 4.307 ± 0.096
333.15 K | 0.739 ± 0.017 | 1.032 ± 0.023 | 1.41 ± 0.031 | 1.87 ± 0.041 | 2.427 ± 0.053 | 3.105 ± 0.068
353.15 K | 0.576 ± 0.013 | 0.799 ± 0.018 | 1.084 ± 0.024 | 1.418 ± 0.031 | 1.808 ± 0.04 | 2.265 ± 0.049

CC(C)OC(C)C [diisopropyl ether]
viscosity [mPa·s], [1]
Details | 100 kPa | 20000 kPa | 40000 kPa | 60000 kPa | 80000 kPa | 100000 kPa
293.15 K | 0.33 ± 0.007 | 0.396 ± 0.009 | 0.466 ± 0.01 | 0.542 ± 0.012 | 0.625 ± 0.014 | 0.715 ± 0.015
313.15 K | 0.27 ± 0.006 | 0.332 ± 0.007 | 0.392 ± 0.009 | 0.454 ± 0.01 | 0.52 ± 0.011 | 0.588 ± 0.013
333.15 K | 0.225 ± 0.005 | 0.282 ± 0.006 | 0.342 ± 0.007 | 0.402 ± 0.009 | 0.46 ± 0.01 | 0.517 ± 0.011
353.15 K | – | 0.258 ± 0.006 | 0.308 ± 0.007 | 0.358 ± 0.008 | 0.408 ± 0.009 | 0.457 ± 0.01

CC(C)OC(C)C [diisopropyl ether] + CCOC(F)(C(F)(F)C(F)(F)C(F)(F)F)C(F)(C(F)(F)F)C(F)(F)F
viscosity [mPa·s], [2]
Details | 293.15 K | 313.15 K | 333.15 K | 353.15 K
100 kPa, Capillary tube (Ostwald / Ubbelohde) method | 0.33 ± 0.007 | 0.27 ± 0.006 | 0.225 ± 0.005 | –
20000 kPa, Falling or rolling sphere viscometry | 0.396 ± 0.009 | 0.332 ± 0.007 | 0.282 ± 0.006 | 0.258 ± 0.006
40000 kPa, Falling or rolling sphere viscometry | 0.466 ± 0.01 | 0.392 ± 0.009 | 0.342 ± 0.007 | 0.308 ± 0.007
60000 kPa, Falling or rolling sphere viscometry | 0.542 ± 0.012 | 0.454 ± 0.01 | 0.402 ± 0.009 | 0.358 ± 0.008
80000 kPa, Falling or rolling sphere viscometry | 0.625 ± 0.014 | 0.52 ± 0.011 | 0.46 ± 0.01 | 0.408 ± 0.009
100000 kPa, Falling or rolling sphere viscometry | 0.715 ± 0.015 | 0.588 ± 0.013 | 0.517 ± 0.011 | 0.457 ± 0.01
